Drawing on patent US10676446B2, “Bicyclic quinazolinone derivatives” (Hoffmann-La Roche Inc., priority 2015, dated 2020), this text covers IC50 for 20 compounds.

Molecules are shown by their SMILES.

This test concerns the target human ATX (autotaxin, ENPP2), His-tagged (Homo sapiens (Human), UniProt Q13822). The test is described as follows: Human ATX enzyme inhibition assay (fluorescence quenching, MR121 substrate). Type of test: biochemical. Particulars: 30 nM ATX, 1 μM MR121 substrate, 30° C., pH 8.0. The essentials: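 His-tagged human ATX (30 nM final) preincubated 15 min at 30 °C with serially diluted compound in Tris-HCl pH 8.0 buffer with Ca2+, Mg2+ and 0.01% Triton X-100. MR121-labelled fluorescence-quenched substrate then added (1 μM final) for a further 15 min at 30 °C; fluorescence read-out.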
In turn, `CCN(CC)C(=O)CN1CCN(c2ccc3ncn(CC(=O)N(C)Cc4ccc(Cl)c(Cl)c4)c(=O)c3c2)CC1` [Example 110] displayed an IC50 of 34 nM. Consider `CO[C@H](C)C(=O)N1CCC(c2ccc3ncn(CC(=O)N(C)Cc4ccc(Cl)c(Cl)c4)c(=O)c3c2)CC1` [Example 167], for which the IC50 turned out to be 4 nM. Compound `CC(C)[C@@H](O)C(=O)N1CCC(c2ccc3ncn(CC(=O)N(C)Cc4ccc(C#N)c(Cl)c4)c(=O)c3c2)CC1` [Example 157] yielded a concentration for half-maximal inhibition (IC50) of 10 nM. The figure for `CC(=O)N1CCC(c2ccc3ncn(CC(=O)NCc4ccc(Cl)c(Cl)c4)c(=O)c3c2)CC1` [Example 122] is 12 nM; for `O=C(Cn1cnc2ccc(N3CCN(CC4CCOC4)CC3)cc2c1=O)NCc1ccc(Cl)c(Cl)c1` (centres unmarked) [Example 97] it is 4 nM; for `CC(=O)N1CCN(c2ccc3ncn(CC(=O)NCc4ccc(F)c(OC(F)(F)F)c4)c(=O)c3c2)CC1` [Example 26] it is 51 nM. In the case of `CN(Cc1ccc(C#N)c(Cl)c1)C(=O)Cn1cnc2ccc(C3CCN(C(=O)CCC#N)CC3)cc2c1=O` [Example 155, N-[(3-Chloro-4-cyanophenyl)methyl]-2-[6-[1-(3-cyanopropanoyl)piperidin-4-yl]-4-oxoquinazolin-3-yl]-N-methylacetamide] it was 153 nM.

Take `CN(Cc1ccc(Cl)c(Cl)c1)C(=O)Cn1cnc2ccc(N3CCN(CC4CC4)CC3)cc2c1=O` [Example 104, 2-[6-[4-(Cyclopropylmethyl)piperazin-1-yl]-4-oxoquinazolin-3-yl]-N-[(3,4-dichlorophenyl)methyl]-N-methylacetamide]: it took 64 nM to reach half-maximal inhibition (IC50). The figure for `CC(=O)N1CCN(c2ccc3ncn(CC(=O)NCc4ccc(Cl)c(F)c4)c(=O)c3c2)CC1` [Example 24] is 33 nM; for `COC(=O)N1CCC(c2ccc3ncn(CC(=O)N(C)Cc4ccc(C#N)c(Cl)c4)c(=O)c3c2)CC1` [Example 160, Methyl 4-[3-[2-[(3-chloro-4-cyanophenyl)methyl-methylamino]-2-oxoethyl]-4-oxoquinazolin-6-yl]piperidine-1-carboxylate] it is 158 nM. For the compound `CN(Cc1ccc(Cl)c(C#N)c1)C(=O)Cn1cnc2ccc(N3CCCN(CC4CCOC4)CC3)cc2c1=O` (centres unmarked) [Example 130, N-[(4-Chloro-3-cyanophenyl)methyl]-N-methyl-2-[4-oxo-6-[4-(oxolan-3-ylmethyl)-1,4-diazepan-1-yl]quinazolin-3-yl]acetamide], the IC50 was found to be 111 nM. In the case of `CC(=O)N1CCC(O)(c2ccc3ncn(CC(=O)N(C)Cc4ccc(Cl)c(Cl)c4)c(=O)c3c2)CC1` [Example 184, 2-[6-(1-Acetyl-4-hydroxypiperidin-4-yl)-4-oxoquinazolin-3-yl]-N-[(3,4-dichlorophenyl)methyl]-N-methylacetamide] it was 86 nM. The figure for `CC(=O)N1CCC(c2ccc3ncn(CC(=O)NCc4ccc(C(F)(F)F)cc4)c(=O)c3c2)CC1` [Example 123] is 67 nM; for `NC1(C(=O)N2CCN(c3ccc4ncn(CC(=O)NCc5ccc(Cl)c(Cl)c5)c(=O)c4c3)CC2)COC1` [Example 70, 2-[6-[4-(3-Aminooxetane-3-carbonyl)piperazin-1-yl]-4-oxoquinazolin-3-yl]-N-[(3,4-dichlorophenyl)methyl]acetamide] it is 318 nM. The figure for `COC(=O)CCN(Cc1ccc(Cl)c(Cl)c1)C(=O)Cn1cnc2ccc(N3CCN(C(C)=O)CC3)cc2c1=O` [Example 53, Methyl 3-[[2-[6-(4-acetylpiperazin-1-yl)-4-oxoquinazolin-3-yl]acetyl]-[(3,4-dichlorophenyl)methyl]amino]propanoate] is 18 nM. `CC(=O)N1CCC(c2cc(F)c3ncn(CC(=O)N(C)Cc4ccc(C#N)c(Cl)c4)c(=O)c3c2)CC1` [Example 187, 2-[6-(1-Acetylpiperidin-4-yl)-8-fluoro-4-oxoquinazolin-3-yl]-N-[(3-chloro-4-cyanophenyl)methyl]-N-methylacetamide]: the IC50 worked out at 1 nM.

As for `O=C(Cn1cnc2ccc(N3CCN(Cc4ccoc4C(=O)O)CC3)cc2c1=O)NCc1ccc(Cl)c(Cl)c1` [Example 102], it took 195 nM to reach half-maximal inhibition (IC50).

`COC1CC(C(=O)N2CCN(c3ccc4ncn(CC(=O)N(C)Cc5ccc(Cl)c(Cl)c5)c(=O)c4c3)CC2)C1` (centres unmarked) [Example 78] came in with an IC50 of 9 nM. The figure for `CC(=O)N1CCN(c2ccc3ncn(C4(C(=O)NCc5ccc(Cl)c(Cl)c5)CC4)c(=O)c3c2)CC1` [Example 150, 1-[6-(4-Acetylpiperazin-1-yl)-4-oxoquinazolin-3-yl]-N-[(3,4-dichlorophenyl)methyl]cyclopropane-1-carboxamide] is 91 nM; for `Cn1cccc1CN1CCN(c2ccc3ncn(CC(=O)NCc4ccc(Cl)c(Cl)c4)c(=O)c3c2)CC1` [Example 99] it is 31 nM.

As a reminder, the IC50 is the concentration that gives 50% inhibition. A higher IC50 goes with weaker potency.
